The values that follow come from article PMC11794977, “Inhibitory Potential and Binding Thermodynamics of Scyllatoxin‐Based BH3 Domain Mimetics Targeting Repressor BCL2 Proteins” (Journal of Molecular Recognition, 2025).

Assay [1] has as its target Bcl‐2‐ΔTM (UniProt P10415). Description: FP competitive binding assay. The settings on record: fluorescence polarization; 100 nM Bcl‐2‐ΔTM and 25 nM ^FluBax‐BH3^ΔB pre-incubated 1 h, competitor 100 μM to 2.3 pM, further 1 h, ambient temperature; binding buffer 50 mM Tris, 100 mM NaCl, pH 8.0; triplicate; read-out: IC50 (competition with ^FluBax‐BH3^ΔB for Bcl‐2‐ΔTM). The procedure: FP competitive binding assays were performed in triplicate on black 384‐well plates (#3575, Corning, Corning, NY) using a SpectraMax M5e multi‐mode plate reader (Molecular Devices, Sunnyvale, CA). For these experiments, 100 nM Bcl‐2‐ΔTM and 25 nM ^FluBax‐BH3^ΔB were initially co‐incubated for 1 h in binding buffer at ambient temperature in the dark. Following pre‐incubation, serial dilutions of acetylated peptides (100 μM to 2.3 pM) were added, and the solutions were allowed to incubate for an additional 1 h at ambient temperature in the dark. This incubation time was deemed sufficient for binding reactions to reach equilibrium, as judged by an absence of change in the observed polarization value of the sample with the lowest protein concentration over 4 h (data not shown). Following incubation, the fluorescence polarization of each sample was measured using an excitation wavelength of 498 nm and an emission wavelength of 525 nm. An average of 100 reads were recorded for each well. […]
Background: In fluorescence polarisation assays a small probe gives low polarisation when free and higher when bound to something large.

Assay [2] concerns the target Bcl‐2‐ΔTM (UniProt P10415). Description: Isothermal titration calorimetry (ITC). In kind it is binding. Particulars: 25°C; for n (number of sites): 20 μM Bcl‐2‐ΔTM in cell, 200 μM peptide injected; for n (number of sites) / TΔS / ΔH: binding buffer pH 8.0, ± SD, SD; for ΔG: binding buffer pH 8.0, calculated as ΔH − TΔS. Here is the method:
All ITC experiments were performed in triplicate using a MicroCal 200 ITC instrument (Malvern Panalytical) at 25°C. To initiate ITC experiments, the sample cell was filled with 250 μL of binding buffer supplemented with 20 μM Bcl‐2‐ΔTM. Acetylated peptides were then diluted to a final concentration of 200 μM in binding buffer and injected into the sample cell at 2 μL volumes using a 6 s injection time and a 150 s delay between each injection. Data analysis was performed using MicroCal Origin software v7.0. Non‐linear curves were fit using Equation (3) adapted from the instrument manual: (3) ΔQ=nMtΔHVo/21+Xt/nMt+1/nKaMt−1+Xt/nMt+1/nKaMt^2−4Xt/nMt where, ΔQ is the heat content released or absorbed by each injection. ΔH is the enthalpy change of ligand binding and M t is bulk concentration of Bcl‐2‐ΔTM. V o is the cell volume of Bcl‐2‐ΔTM and K a is the affinity constant. X t is bulk concentration of peptide and n is the number of sites occupied by the peptide. Dissociation constants (K d) for all peptides were calculated by taking the reciprocal of the K a .
ΔG values were calculated from the Gibbs free energy Equation (4) using Origin‐fitted values of ΔH and program‐calculated values of ΔS. (4) ΔG=ΔΗ−ΤΔS

Each structure is given as a SMILES string. Where a SMILES comes first, the peptide text is derived from it.

Chain of Bcl‐2‐ΔTM (P10415 whole entry, stated change not applied): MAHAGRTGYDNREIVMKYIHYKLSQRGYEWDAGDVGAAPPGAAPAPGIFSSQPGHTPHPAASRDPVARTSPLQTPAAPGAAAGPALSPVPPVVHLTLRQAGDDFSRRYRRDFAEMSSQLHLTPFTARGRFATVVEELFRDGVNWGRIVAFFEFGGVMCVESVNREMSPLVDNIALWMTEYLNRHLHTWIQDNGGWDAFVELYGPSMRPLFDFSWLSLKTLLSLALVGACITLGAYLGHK

For orientation: IC50 means the midpoint of a concentration-inhibition curve. By Kd is commonly meant the equilibrium constant for the complex coming apart. Consider `CC[C@H](NC(=O)[C@H](CCC(=O)O)NC(=O)[C@H](CO)NC(=O)[C@H](CC(C)C)NC(=O)[C@H](CCCCN)NC(=O)[C@H](CCCCN)NC(=O)[C@@H](NC(=O)[C@H](CO)NC(=O)CNC(C)=O)[C@@H](C)O)C(=O)N[C@@H](CC(C)C)C(=O)N[C@@H](CCCCN)C(=O)N[C@@H](CCCNC(=N)N)C(=O)N[C@H](C(=O)NCC(=O)N[C@@H](CC(=O)O)C(=O)N[C@@H](CCC(=O)O)C(=O)N[C@@H](CC(C)C)C(=O)N[C@@H](CC(=O)O)C(=O)N[C@@H](CO)C(=O)N[C@@H](CC(N)=O)C(=O)N[C@@H](CCSC)C(N)=O)[C@@H](C)CC` [^AcBax‐BH3^ΔB, reference compound] (HELM PEPTIDE1{[ac].G.S.T.K.K.L.S.E.[Abu].L.K.R.I.G.D.E.L.D.S.N.M.[am]}$$$$V2.0), for which the IC50 at Bcl‐2‐ΔTM [1] turned out to be 141 nM. Moreover, at Bcl‐2‐ΔTM [2] (3 trials), the “n (number of sites)” value is 0.93 ± 0.05, the TΔS was 4.58 ± 0.20 kcal/mol and the ΔH is -5.43 ± 0.73 kcal/mol. Further, the ΔG on Bcl‐2‐ΔTM [2] (± SD, 3 trials) is -10.02 ± 0.89 kcal/mol. At Bcl‐2‐ΔTM [2] (binding buffer pH 8.0, reciprocal of K a, ± SD, 3 trials), this compound showed a dissociation constant Kd of 191 ± 27.5 nM. Besides, on Bcl‐2‐ΔTM [2] (versus ^AcScTx‐Bax^ΔΔΔ), the “difference in ΔG, complex more stable than that of ^AcScTx‐Bax^ΔΔΔ” value was 1.53 kcal/mol.
Turning to `CC[C@H](NC(=O)[C@H](CO)NC(=O)CNC(C)=O)C(=O)N[C@@H](CCCCN)C(=O)N[C@@H](CCCCN)C(=O)N[C@@H](CC(C)C)C(=O)N[C@@H](CO)C(=O)N[C@H]1CSSC[C@@H](C(=O)N[C@@H](CCC(=O)O)C(=O)N[C@@H](CC)C(=O)N[C@H](C(=O)N[C@@H](CCCCN)C(=O)N[C@@H](Cc2c[nH]cn2)C(N)=O)C(C)C)NC(=O)[C@H](CCCCN)NC(=O)[C@H](CC(=O)O)NC(=O)CNC(=O)[C@H]([C@@H](C)CC)NC(=O)[C@H](CC)NC(=O)[C@H](CCCCN)NC(=O)CNC(=O)[C@H](CC(C)C)NC(=O)[C@H](CC(C)C)NC(=O)CNC(=O)[C@H](CC(=O)O)NC(=O)CNC(=O)[C@H]([C@@H](C)CC)NC(=O)[C@H](CC)NC(=O)[C@H](CCCCN)NC(=O)[C@H](CC(C)C)NC(=O)[C@H](CC)NC1=O` [^AcScTx‐Bax^ΔΔ,8–26] (HELM PEPTIDE1{[ac].G.S.[Abu].K.K.L.S.C.[Abu].L.K.[Abu].I.G.D.G.L.L.G.K.[Abu].I.G.D.K.C.E.[Abu].V.K.H.[am]}$PEPTIDE1,PEPTIDE1,9:R3-27:R3$$$V2.0), at Bcl‐2‐ΔTM [2] (3 trials), the “n (number of sites)” value stood at 1.13 ± 0.08, the TΔS is given as 1.63 ± 0.03 kcal/mol and the ΔH was -5.88 ± 0.15 kcal/mol. Moreover, the ΔG at Bcl‐2‐ΔTM [2] (± SD, 3 trials) was -7.51 ± 0.12 kcal/mol.
As for `CC[C@H](NC(=O)[C@H](CO)NC(=O)CNC(C)=O)C(=O)N[C@@H](CCCCN)C(=O)N[C@@H](CCCCN)C(=O)N[C@@H](CC(C)C)C(=O)N[C@@H](CO)C(=O)N[C@@H](CC)C(=O)N[C@@H](CC)C(=O)N[C@@H](CC(C)C)C(=O)N[C@@H](CCCCN)C(=O)N[C@@H](CC)C(=O)N[C@H](C(=O)NCC(=O)N[C@@H](CC(=O)O)C(=O)NCC(=O)N[C@@H](CC(C)C)C(=O)N[C@@H](CC(C)C)C(=O)NCC(=O)N[C@@H](CCCCN)C(=O)N[C@@H](CC)C(=O)N[C@H](C(=O)NCC(=O)N[C@@H](CC(=O)O)C(=O)N[C@@H](CCCCN)C(=O)N[C@@H](CC)C(=O)N[C@@H](CCC(=O)O)C(=O)N[C@@H](CC)C(=O)N[C@H](C(=O)N[C@@H](CCCCN)C(=O)N[C@@H](Cc1c[nH]cn1)C(N)=O)C(C)C)[C@@H](C)CC)[C@@H](C)CC` [^AcScTx‐Bax^ΔΔΔ] (HELM PEPTIDE1{[ac].G.S.[Abu].K.K.L.S.[Abu].[Abu].L.K.[Abu].I.G.D.G.L.L.G.K.[Abu].I.G.D.K.[Abu].E.[Abu].V.K.H.[am]}$$$$V2.0), at Bcl‐2‐ΔTM [2] (3 trials), the “n (number of sites)” value stood at 0.90 ± 0.09, the TΔS is 4.64 ± 0.11 kcal/mol and the ΔH is -3.85 ± 0.33 kcal/mol. Moreover, the ΔG on Bcl‐2‐ΔTM [2] (± SD, 3 trials) is -8.49 ± 0.33 kcal/mol. In addition, at Bcl‐2‐ΔTM [2] (versus ^AcBax‐BH3^ΔB), the “enthalpic contribution less favorable than with ^AcBax‐BH3^ΔB” value turned out to be 1.58 kcal/mol. Further, at Bcl‐2‐ΔTM [2] (versus ^AcScTx‐Bax^ΔΔ,8–26), the “difference in ΔG, binds more favorably than ^AcScTx‐Bax^ΔΔ,8–26” value is reported as approximately 1 kcal/mol.
